Test results from patent publication US20110008447A1, “CARRIER COMPRISING NANODIAMOND” (NATIONAL CHIAO TUNG UNIVERSITY, priority 2009, published 2011).

Experiments:
A549 cells [1] = assay: cytoskeleton and nuclei staining, confocal microscope; assay type: cell-based, human; details: 24 hours, taxol 50 nM
A549 cells [2] = assay: flow cytometer cell cycle analysis; assay type: cell-based, human; details: in comparison with non-treated samples, p<0.01

## CC(=O)O[C@H]1C(=O)[C@@]2(C)[C@H]([C@H](OC(=O)c3ccccc3)[C@]3(O)C[C@H](OC(=O)[C@H](O)[C@@H](NC(=O)c4ccccc4)c4ccccc4)C(C)=C1C3(C)C)[C@]1(OC(C)=O)CO[C@@H]1C[C@@H]2O [taxol]
A549 cells [1]; carrier 100 μg/mL
  mitosis of the cells: significantly enhancing mitosis
A549 cells [1]; carrier or ND 100 μg/mL
  effect on microtubules, spindle and chromosomes: induced polymerization of microtubules, inhibited formation of spindle, and inhibited separation of chromosomes
A549 cells [2]
  G1/G0 cell population: significantly reduced
